According to publication PMC12974487, “Inhibition of FicD-mediated AMPylation and deAMPylation by isoprenoid diphosphates” (Proceedings of the National Academy of Sciences of the …, 2026):
Changes are numbered by the printed parent chain. Entries after “also recorded” stand apart in the source; their conditions may differ.

Experiments:
FicD^R374H = molecular target: T1, FicD^R374H (Homo sapiens, UniProt Q9BVA6, R374H); experiment: AMPylation of Δ26hBiP^T229A by pathogenic variant FicD^R374H; format: biochemical; conditions: indicated concentrations of FPP
T1 construct: Wild-type FicD (residues 105-458) and all mutants were expressed as N-terminal 6xHis-Sumo fusions; 6xHis-Sumo (N, cleaved yes); made in house; host or cells: Rosetta(DE3) E. coli
T1 sequence (Q9BVA6 105-458 R374H): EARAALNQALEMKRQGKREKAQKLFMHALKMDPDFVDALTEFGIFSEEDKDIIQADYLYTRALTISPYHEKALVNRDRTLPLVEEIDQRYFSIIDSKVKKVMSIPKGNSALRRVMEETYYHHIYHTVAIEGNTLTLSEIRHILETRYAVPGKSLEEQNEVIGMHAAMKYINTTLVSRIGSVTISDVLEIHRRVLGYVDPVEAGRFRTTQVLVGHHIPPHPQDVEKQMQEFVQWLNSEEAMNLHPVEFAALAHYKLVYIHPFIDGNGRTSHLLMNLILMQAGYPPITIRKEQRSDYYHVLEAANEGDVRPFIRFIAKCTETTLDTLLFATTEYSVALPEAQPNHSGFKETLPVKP
Excerpt: (§1) Fig. 5. Crystal structure of FPP inhibitor bound to FicD active site. […] FPP (cyan stick) and Mg^2+ (cyan sphere) in the pocket of FicD shown as APBS electrostatic surface with positive areas in blue, negative in red, and neutral in white (contour level: ±5 kBT/e) (Right). […] (C–E) AMPylation assays of Δ26hBiP^T229A in the presence of the indicated concentration of FPP using the pathogenic human variants (C) FicD^R371S, (D) FicD^R374H and (E) FicD^R374C. AMPylated BiP and Fic were quantified by immunodetection, and total BiP was quantified by CBB. […]
(§2) Isothermal Titration Calorimetry
Proteins were dialyzed against 25mM HEPES pH 7.4/100mM KCl/10% glycerol prior to titration.
Dialyzed proteins were then spun down at 21,000G for 15 minutes at 4C to remove trace insoluble material. The protein concentration was measured spectrophotometrically and then diluted to working concentration with 25mM HEPES pH 7.4/100mM KCl/10% glycerol. MgCl2 was added to proteins to a final concentration of 4mM. ITC experiments were performed in a Micro-Cal PEAQ-ITC (Malvern Panalytical, Worcestershire, UK) calorimeter with a stirred 206.2 μL reaction cell held at 20 °C. 250μM FPP was titrated into 25uM Δ104hFicL258D with 750rpm stirring. The first injection was 0.5 μL, followed by twenty 1.9 μL injections. […]
Thermogram and binding figures were plotted in […]

FicD^R374C = molecular target: T2, FicD^R374C (Homo sapiens, UniProt Q9BVA6, R374C); experiment: AMPylation of Δ26hBiP^T229A by pathogenic variant FicD^R374C; format: biochemical; conditions: indicated concentrations of FPP
T2 construct: Wild-type FicD (residues 105-458) and all mutants were expressed as N-terminal 6xHis-Sumo fusions; 6xHis-Sumo (N, cleaved yes); made in house; host or cells: Rosetta(DE3) E. coli
T2 sequence (Q9BVA6 105-458 R374C): T1 sequence (Q9BVA6 105-458 R374H) with H270C
Excerpt: as §1, §2
Proteins were dialyzed against 25mM HEPES pH 7.4/100mM KCl/10% glycerol prior to titration. […]
MgCl2 was added to […]
proteins to a final concentration of 4mM. ITC experiments were performed in a Micro-Cal PEAQ-ITC (Malvern Panalytical, Worcestershire, UK) calorimeter with a stirred 206.2 μL reaction cell held at 20 °C. 250μM FPP was titrated into 25uM Δ104hFicL258D with 750rpm stirring. The first injection was 0.5 μL, followed by twenty 1.9 μL injections. […]
Thermogram and binding figures were plotted in
For AMPylation assays with FicD and BiP, Δ104FicDWT and Δ26hBiPT229A were combined at a ratio of 1:80 in buffer containing 25mM HEPES pH 7.4, 100mM KCl, 5mM MgCl2, 500μM ATP, 1mM DTT, and small molecule where indicated. Assays with Δ104FicDWT were incubated for 1 hour. […]

`CC(C)=CCC/C(C)=C/CC/C(C)=C/COP(=O)(O)OP(=O)(O)O` [FPP, farnesyl-pyrophosphate] was tested, and the “FPP inhibition of FicD^R374H mediated AMPylation” value (FicD^R374H) was “inhibition; also recorded: inhibited” and the “FPP inhibition of FicD^R374C mediated AMPylation” value (FicD^R374C) was “inhibition; also recorded: inhibited”.
